{
  "source": "patent US9995734B2",
  "about": "“Human T cell line assay for evaluating the immunologic identity of glatiramer acetate preparations” (Mylan Inc., priority 2013, dated 2018)",
  "key": {"Donor 3 COP T-Cell Lines": {"system": "Donor 3 COP T-Cell Lines", "experiment": "ATP proliferation assay (CellTiter Glo), Donor 3 COP T-cell lines, incl. reactivity to non-canonical GA peptides", "assay_type": "cell-based, human", "details": "for Reactivity (proliferation), Mean: Day 54 of culture"}, "Donor 3 GMA T-Cell Lines": {"system": "Donor 3 GMA T-Cell Lines", "experiment": "ATP proliferation assay (CellTiter Glo), Donor 3 GMA T-cell lines, incl. reactivity to non-canonical GA peptides", "assay_type": "cell-based, human", "details": "for ATP proliferation assay: 10 μg/mL, Day 14"}},
  "data": [
    {"substance": "glatiramer acetate [GMA]", "values": [
      {"measurement": "Mean, ATP proliferation assay", "setting": "Donor 3 COP T-Cell Lines; T-cell line 165-D11C, 10 μg/mL, Day 46, after 3 days", "result": 56609, "unit": "RLU"},
      {"measurement": "Reactivity (proliferation), Mean", "setting": "Donor 3 COP T-Cell Lines; T-cell line 165-D11C, 100 μg/mL antigen, No Antigen 4571", "result": 14560, "unit": "RLU"},
      {"measurement": "Mean, ATP proliferation assay", "setting": "Donor 3 COP T-Cell Lines; T-cell line 165-D11C, Day 32, 10 μg/mL", "result": 416, "unit": "RLU"},
      {"measurement": "Reactivity (proliferation), Mean", "setting": "Donor 3 COP T-Cell Lines; T-cell line 165-E3C, 1 μg/mL antigen, No Antigen 2797", "result": 2954, "unit": "RLU"},
      {"measurement": "Mean, ATP proliferation assay", "setting": "Donor 3 COP T-Cell Lines; T-cell line 165-E3C, 1 μg/mL, Day 46, after 3 days", "result": 10662, "unit": "RLU"},
      {"measurement": "Reactivity (proliferation), Mean", "setting": "Donor 3 COP T-Cell Lines; T-cell line 165-E3C, 3 μg/mL antigen, No Antigen 2797", "result": 17065, "unit": "RLU"},
      {"measurement": "Mean, ATP proliferation assay", "setting": "Donor 3 COP T-Cell Lines; T-cell line 165-E3C, 3 μg/mL, Day 46, after 3 days", "result": 35044, "unit": "RLU"},
      {"measurement": "Reactivity (proliferation), Mean", "setting": "Donor 3 COP T-Cell Lines; T-cell line 165-E3C, 10 μg/mL antigen, No Antigen 2797", "result": 37602, "unit": "RLU"},
      {"measurement": "Mean, ATP proliferation assay", "setting": "Donor 3 COP T-Cell Lines; T-cell line 165-E3C, 10 μg/mL, Day 46, after 3 days", "result": 68577, "unit": "RLU"},
      {"measurement": "Reactivity (proliferation), Mean", "setting": "Donor 3 COP T-Cell Lines; T-cell line 165-E3C, 100 μg/mL antigen, No Antigen 2797", "result": 23437, "unit": "RLU"},
      {"measurement": "Mean, ATP proliferation assay", "setting": "Donor 3 COP T-Cell Lines; T-cell line 165-E3C, Day 32, 10 μg/mL", "result": 3723, "unit": "RLU"},
      {"measurement": "Reactivity (proliferation), Mean", "setting": "Donor 3 COP T-Cell Lines; T-cell line 165-F3C, 1 μg/mL antigen, No Antigen 3150", "result": 9423, "unit": "RLU"},
      {"measurement": "Proliferation (luminescent ATP assay), Mean", "setting": "Donor 3 COP T-Cell Lines; T-cell line 165-F3C, 1 μg/mL antigen, Day 77 of culture, 0 μg/mL 1563", "result": 7277},
      {"measurement": "Mean, ATP proliferation assay", "setting": "Donor 3 COP T-Cell Lines; T-cell line 165-F3C, 1 μg/mL, Day 46, after 3 days", "result": 45592, "unit": "RLU"},
      {"measurement": "Reactivity (proliferation), Mean", "setting": "Donor 3 COP T-Cell Lines; T-cell line 165-F3C, 3 μg/mL antigen, No Antigen 3150", "result": 37555, "unit": "RLU"},
      {"measurement": "Proliferation (luminescent ATP assay), Mean", "setting": "Donor 3 COP T-Cell Lines; T-cell line 165-F3C, 3 μg/mL antigen, Day 77 of culture, 0 μg/mL 1563", "result": 50400},
      {"measurement": "Mean, ATP proliferation assay", "setting": "Donor 3 COP T-Cell Lines; T-cell line 165-F3C, 3 μg/mL, Day 46, after 3 days", "result": 101328, "unit": "RLU"},
      {"measurement": "Reactivity (proliferation), Mean", "setting": "Donor 3 COP T-Cell Lines; T-cell line 165-F3C, 10 μg/mL antigen, No Antigen 3150", "result": 44621, "unit": "RLU"},
      {"measurement": "Proliferation (luminescent ATP assay), Mean", "setting": "Donor 3 COP T-Cell Lines; T-cell line 165-F3C, 10 μg/mL antigen, Day 77 of culture, 0 μg/mL 1563", "result": 70563},
      {"measurement": "Mean, ATP proliferation assay", "setting": "Donor 3 COP T-Cell Lines; T-cell line 165-F3C, 10 μg/mL, Day 46, after 3 days", "result": 84268, "unit": "RLU"},
      {"measurement": "Reactivity (proliferation), Mean", "setting": "Donor 3 COP T-Cell Lines; T-cell line 165-F3C, 100 μg/mL antigen, No Antigen 3150", "result": 12391, "unit": "RLU"},
      {"measurement": "Mean, ATP proliferation assay", "setting": "Donor 3 COP T-Cell Lines; T-cell line 165-F3C, Day 32, 10 μg/mL", "result": 1257, "unit": "RLU"},
      {"measurement": "Reactivity (proliferation), Mean", "setting": "Donor 3 COP T-Cell Lines; T-cell line 165-F6C, 1 μg/mL antigen, No Antigen 2189", "result": 15671, "unit": "RLU"},
      {"measurement": "Mean, ATP proliferation assay", "setting": "Donor 3 COP T-Cell Lines; T-cell line 165-F6C, 1 μg/mL, Day 46, after 3 days", "result": 18511, "unit": "RLU"},
      {"measurement": "Proliferation (luminescent ATP assay), Mean", "setting": "Donor 3 COP T-Cell Lines; T-cell line 165-F6C, 1.25 μg/mL antigen, Day 76 of culture, No Antigen value 517", "result": 629},
      {"measurement": "Proliferation (luminescent ATP assay), Mean", "setting": "Donor 3 COP T-Cell Lines; T-cell line 165-F6C, 2.5 μg/mL antigen, Day 76 of culture, No Antigen value 517", "result": "3,197"},
      {"measurement": "Reactivity (proliferation), Mean", "setting": "Donor 3 COP T-Cell Lines; T-cell line 165-F6C, 3 μg/mL antigen, No Antigen 2189", "result": 40274, "unit": "RLU"},
      {"measurement": "Mean, ATP proliferation assay", "setting": "Donor 3 COP T-Cell Lines; T-cell line 165-F6C, 3 μg/mL, Day 46, after 3 days", "result": 43634, "unit": "RLU"},
      {"measurement": "Proliferation (luminescent ATP assay), Mean", "setting": "Donor 3 COP T-Cell Lines; T-cell line 165-F6C, 5 μg/mL antigen, Day 76 of culture, No Antigen value 517", "result": "11,867"},
      {"measurement": "Reactivity (proliferation), Mean", "setting": "Donor 3 COP T-Cell Lines; T-cell line 165-F6C, 10 μg/mL antigen, No Antigen 2189", "result": 38921, "unit": "RLU"},
      {"measurement": "Proliferation (luminescent ATP assay), Mean", "setting": "Donor 3 COP T-Cell Lines; T-cell line 165-F6C, 10 μg/mL antigen, Day 76 of culture, No Antigen value 517", "result": "20,141"},
      {"measurement": "Mean, ATP proliferation assay", "setting": "Donor 3 COP T-Cell Lines; T-cell line 165-F6C, 10 μg/mL, Day 46, after 3 days", "result": 34321, "unit": "RLU"},
      {"measurement": "Reactivity (proliferation), Mean", "setting": "Donor 3 COP T-Cell Lines; T-cell line 165-F6C, 100 μg/mL antigen, No Antigen 2189", "result": 3690, "unit": "RLU"},
      {"measurement": "Mean, ATP proliferation assay", "setting": "Donor 3 COP T-Cell Lines; T-cell line 165-F6C, Day 32, 10 μg/mL", "result": 1489, "unit": "RLU"},
      {"measurement": "response in proliferation assay", "setting": "Donor 3 COP T-Cell Lines; all seven Donor 3 COP T-cell lines tested, Day 54", "result": "responded well"},
      {"measurement": "reactivity in confirmatory ATP proliferation assay", "setting": "Donor 3 COP T-Cell Lines; six Donor 3 COP lines, Day 32, 10 μg/mL (Table 23)", "result": "showed reactivity"},
      {"measurement": "ratio of proliferation in response to GMA:control (APC only)", "setting": "Donor 3 GMA T-Cell Lines", "result": "greater than 3.0"},
      {"measurement": "ATP proliferation assay", "setting": "Donor 3 GMA T-Cell Lines; 165-B2G, control 9692", "result": 28770, "unit": "RLU"},
      {"measurement": "response in proliferation assay", "setting": "Donor 3 GMA T-Cell Lines; 165-B5G, 165-D8G, 165-E7G, 165-F5G, Day 56, 0, 1, 5, 10, 100 μg/mL, GMA and COP responses comparable", "result": "responded well"},
      {"measurement": "ATP proliferation assay", "setting": "Donor 3 GMA T-Cell Lines; 165-B5G, control 15423", "result": 63023, "unit": "RLU"},
      {"measurement": "ATP proliferation assay", "setting": "Donor 3 GMA T-Cell Lines; 165-B11G, control 18412", "result": 56588, "unit": "RLU"},
      {"measurement": "ATP proliferation assay", "setting": "Donor 3 GMA T-Cell Lines; 165-C4G, control 14869", "result": 62306, "unit": "RLU"},
      {"measurement": "ATP proliferation assay", "setting": "Donor 3 GMA T-Cell Lines; 165-C5G, control 14240", "result": 76296, "unit": "RLU"},
      {"measurement": "ATP proliferation assay", "setting": "Donor 3 GMA T-Cell Lines; 165-C8G, control 18205", "result": 79281, "unit": "RLU"},
      {"measurement": "ATP proliferation assay", "setting": "Donor 3 GMA T-Cell Lines; 165-D8G, control 30331", "result": 136938, "unit": "RLU"},
      {"measurement": "ATP proliferation assay", "setting": "Donor 3 GMA T-Cell Lines; 165-E7G, control 18215", "result": 66364, "unit": "RLU"}
    ]}
  ]
}
